The text below walks through data of patent publication US20240285627A1, “DRUG COMBINATION OF FAK INHIBITOR AND IMMUNOGENIC CELL DEATH INDUCER AND USE THEREOF” (INXMED (NANJING) CO., LTD., priority 2022, published 2024).

Format in all cases: cell-based
In experiment [1] the test system is Mouse colon cancer CT26 cells. The experiment can be described thus: Proliferation of CT26 cells, CCK8, Lurbinectedin with or without IN10018 (Example 1). As to conditions: 72 hours, combination group: 6 μM IN10018 added to each well. On the procedure:
Mouse colon cancer CT26 cells (Insitute of Biochemistry and Cell Biology) were cultured with RPMI-1640 (Shanghai Basalmedia, classification number: L210KJ, batch number: F210916)+10% FBS (Gibco, classification number: 10099-141c, batch number: 2158737cp) and passaged twice. When the cells were in good condition, the culture solution was placed in a 96-well plate with 3000 cells/well. After the cells were spread for 24 hours, a culture medium containing Lurbinectedin (DC chemicals, classification number: DC12502, batch number: DC1250203) was added. 10 drug action concentrations were set, wherein the first concentration was 0.1 μM, which was serially diluted 4 times, and the last concentration was a control with a drug concentration of 0. Each drug concentration was set in triplicate. At the same time, another group of cells was established with the same drug concentration as the above method. The difference was that 6 μM IN10018 was added to each well. The drugs were mixed and the mixture was cultured in a 5% CO2 incubator at 37° C. for 72 hours.
After 72 hours of drug action, the cells were observed under a microscope, and 10 μl of CCK8 detection reagent (Cellorlab, classification number: CX001M, batch number: 2571100) was added to each well. […] Then the plate was read with a microplate reader OD450 ([…]).

For experiment [2], the system named is Mouse colon cancer CT26 cells. Briefly: CT26 cells with IN10018 and Lurbinectedin: microscope and flow cytometry for CRT / Annexin V (Example 2). As to conditions: CT26, 48 hours; IN10018 5 μM, Lurbinectedin 0.00142 μM. The protocol: Mouse colon cancer CT26 cells (Insitute of Biochemistry and Cell Biology) were cultured with RPMI-1640 (Shanghai Basalmedia, classification number: L210KJ, batch number: F210916)+10% FBS (Gibco, classification number: 10099-141c, batch number: 2158737cp) and passaged twice. When the cells were in good condition, the culture solution was placed in a 24-well plate. After the cells were spread for 24 hours, four groups were set up, wherein the first group was a control group, and the culture medium was added; the second group was IN10018 with a concentration of 5 μM; the third group was Lurbinectedin (DC chemicals, classification number: DC12502, batch number: DC1250203) with a concentration of 0.00142 μM; and the fourth group was IN10018 (5 μM) combined with Lurbinectedin (0.00142 μM). The drugs were mixed and the mixture was cultured in a 5% CO2 incubator at 37° C. for 48 hours.
After 48 hours of drug action, the cells were observed under a microscope and photographed, and the photos were kept. Then the cells were collected, subjected to flow analysis, and washed twice with flow buffer (PBS+2% FBS). 0.5 μl of AF647 anti-Calreticulin antibody (abcam, classification number: ab196159, batch number: CR33676773) was added to each well and fully mixed. […] The mixture was cultured at room temperature in the dark for 15 minutes, and then analyzed by flow cytometry.
On the technique in general: A flow cytometer gives signals particle by particle.

In experiment [3] the test system is Mouse colon cancer CT26 cells. The experiment can be described thus: Induction of immunogenic cell death targets by Crizotinib and IN10018 in CT26 cells (Example 7). The conditions noted are these: CT26, 48 hours; IN10018 5 μM, Crizotinib 3 μM. The protocol: CT26 cells were cultured in monolayer in vitro, and the culture conditions were: RPMI-1640 medium with 10% fetal bovine serum, 37° C. and 5% CO2. Trypsin was used for routine digestion and passage treatment two or three times a week. When the cells were in exponential growth period and the adherent confluence reached 80%-90%, the cells were collected and plated.
CT26 cells were digested with trypsin, then collected and counted. According to the counting results, the cells were diluted with RPMI-1640+10% FBS, and the dilution concentration was 50,000 cells per ml. Then, the cells were plated on 24-well culture plates, and 1 ml of cell suspension (50,000 cells) was laid in each well. After plating, the cells were cultured in 37° C. and 5% CO2 incubator. […]
After the cells were washed twice with flow buffer (DPBS+2% FBS), the cells in each group were divided into two parts on average, one of which was added with 0.5 μl of AF647 anti-Calreticulin antibody in each well, then mixed well, and incubated in the dark for 20 minutes at 4° C. […] The cells were cultured at room temperature in the dark for 15 minutes, and then analyzed by flow cytometry.
Data analysis: After the assay, the cell positive rate was analyzed by Flowjo(V10) software.

SMILES strings stand for the structures.

Broadly, the IC50 is the concentration that gives 50% inhibition. Take `COc1ccc2[nH]c3c(c2c1)CCN[C@]31CS[C@@H]2c3c(OC(C)=O)c(C)c4c(c3[C@H](COC1=O)N1[C@@H]2[C@H]2c3c(cc(C)c(OC)c3O)C[C@@H]([C@@H]1O)N2C)OCO4` [Lurbinectedin]: in experiment [1], the IC50 is 710 pM. Moreover, the “cell state under a microscope” value in experiment [2] is “poor”. On to `C[C@@H](Oc1cc(-c2cnn(C3CCNCC3)c2)cnc1N)c1c(Cl)ccc(F)c1Cl` [Crizotinib], for which the “cell state under a microscope (cell death; cell viability)” value in experiment [3] is given as “cell death was obvious”.
